Assay results published in patent publication US12486276B2, “5-(2,5-difluorophenyl)pyrrolidin-1-yl)-3-(1H-pyrazol-1-yl)pyrazolo[1,5-a]pyrimidine derivatives and related compounds as Trk kinase inhibitors for treating cancer” (Pyramid Biosciences, Inc., priority 2017, dated 2025).

target: T1, TrkA kinase domain (Homo sapiens, UniProt P04629); assay: TrkA Kinase Assay (Trk kinase biochemical assay); conditions: 33 pM TrkA, 100 nM peptide substrate, 10 µM ATP; 15 minute preincubation; read-out: TrkA WT IC50
T1 construct: TrkA kinase domain was supplied by SignalChem; purchased SignalChem
T1 sequence (P04629 510-781 limits assumed): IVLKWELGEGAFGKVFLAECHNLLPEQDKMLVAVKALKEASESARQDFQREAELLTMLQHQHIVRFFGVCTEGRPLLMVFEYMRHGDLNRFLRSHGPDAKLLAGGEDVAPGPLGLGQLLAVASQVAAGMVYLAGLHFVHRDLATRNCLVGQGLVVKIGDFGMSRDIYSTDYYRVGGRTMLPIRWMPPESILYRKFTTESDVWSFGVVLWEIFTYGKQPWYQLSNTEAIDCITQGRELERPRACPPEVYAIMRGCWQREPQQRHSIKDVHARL
Description: Example 33: TrkA Kinase Assay Protocol
TrkA kinase domain was supplied by SignalChem. Ulight PolyGT peptide substrate and Europium labeled W1024 antiphosphotyrosine antibody were supplied by Perkin Elmer. Assay buffer contained 50 mM HEPES, 10 mM MgCb, 1 mM EGTA, 2 mM DTT, 0.1 mg/mL BSA, and 0.005% w/v tween 20, pH 7.5. Enzyme dilution buffer was made by supplementing assay buffer with 25% w/v glycerol. Antibody dilution buffer contained 20 mM Tris, 137 mM NaCl, and 0.05% w/v tween 20, pH 8.0. Buffers were prepared at room temperature. Enzyme solutions were made on ice, while other solutions were made at room temperature and all subsequent assay steps were performed at room temperature. The TrkA stock solution (0.1 mg/mL) was diluted 156× in enzyme dilution buffer and then 100× in assay buffer. Five pL/well of enzyme solution was added to the assay plate (Greiner black 384-well nonbinding plate), with buffer containing no enzyme added to negative control wells. Test compounds were serially diluted in DMSO at 300× final assay concentration. One μL of each test compound dilution was mixed with 99 pL assay buffer plus ATP (30 μM) and five pL of each test compound-ATP solution was added to w¾13s containing enzyme. Positive control wells contained enzyme and substrates but no test compounds. After a 15 minute enzyme-test compound preincubation, five pL of substrate diluted in assay buffer was added to all wells. Final assay concentrations were 33 pM TrkA, 100 nM peptide substrate, and […]. After a five minute reaction, five pL of 80 mM EDTA was added, followed five minutes later by five pL two nM antibody solution. The ratio of fluorescence at 665 nm vs. 615 nM in each well was determined using a Tecan Infinite Pro F200 plate reader. For each test compound well, percent inhibition w % s calculated (% inliib. =100-100*(test value-neg. control)/(pos. control-neg. control)). Percent inhibition values were fit to a four parameter logistic to determine ICso values for each test compound.

COc1cncc(-c2cnn(-c3cnn4ccc(N5CCC[C@@H]5c5cc(F)ccc5F)nc34)c2)c1 [I-161] and Fc1cncc(-c2cnn(-c3cnn4ccc(N5CCC[C@@H]5c5cc(F)ccc5F)nc34)c2)c1 [I-190] cannot be ordered by IC50: < 10 nM for the first, < 10 nM for the second.

COc1ccc(-c2cnn(-c3cnn4ccc(N5CCC[C@@H]5c5ncccc5F)nc34)c2)cn1 [I-222] and COc1ccc(-c2cnn(-c3cnn4ccc(N5CCC[C@@H]5c5cc(F)ccc5F)nc34)c2)cn1 [I-200] cannot be ordered by IC50: < 10 nM for the first, < 10 nM for the second.

Fc1ccc(F)c([C@H]2CCCN2c2ccn3ncc(-n4cc(C(F)F)cn4)c3n2)c1 [I-176, (R)-3-(4-(difluor®methyl)-1H-pyrazol-1-yl)-5-(2-(2,5-difluorophenyl)pyrrolidin-˜yl)pyrazolo[1,5-a]pyriniidine] and Fc1ccc(F)c([C@H]2CCCN2c2ccn3ncc(-n4cc(C(F)(F)F)cn4)c3n2)c1 [I-147] cannot be ordered by IC50: < 10 nM for the first, < 10 nM for the second.

Fc1ccc(F)c([C@H]2CCCN2c2ccn3ncc(-n4cc5c(n4)CCOC5)c3n2)c1 [I-183, (R)-2-(5-(2-(2,5-difluorophenyl)pyrrolidin-1-yl)pyrazolo[1,5-a]pyrimidin-3-yl)-2,4,6,7-tetrahydropyrano[4,3-c]pyrazole] and Fc1ccc(F)c([C@H]2CCCN2c2ccn3ncc(-n4cc(C5=CCOCC5)cn4)c3n2)c1 [I-175, (R)-5-(2-(2,5-difluorophenyl)pyrrolidin-1-yl)-3-(4-(3,6-dihydro-2H-pyran-4-yl)-1H-pyrazol-1-yl)pyrazolo[1,5-a]pyrimidine] cannot be ordered by IC50: < 10 nM for the first, < 10 nM for the second.

Fc1ccc(F)c([C@H]2CCCN2c2ccn3ncc(-n4cc(C5=CCOC5)cn4)c3n2)c1 [I-188] and Fc1ccc(F)c([C@H]2CCCN2c2ccn3ncc(-n4cc(C5=COCC5)cn4)c3n2)c1 [I-212] cannot be ordered by IC50: < 10 nM for the first, < 10 nM for the second.

CNc1ccc(F)c([C@H]2CCCN2c2ccn3ncc(-n4cc(C)cn4)c3n2)n1 [I-218] and Cc1cnn(-c2cnn3ccc(N4CCC[C@@H]4c4nc(F)ccc4F)nc23)c1 [I-154, (R)-5-(2-(3,6-difluoropyridin-2-yl)pyrrolidin-1-yl)-3-(4-methyl-1H-pyrazol-1-yl)pyrazolo[1,5-a]pyrimidine] cannot be ordered by IC50: < 10 nM for the first, < 10 nM for the second.

N#Cc1cncc(-c2cnn(-c3cnn4ccc(N5CCC[C@@H]5c5cc(F)ccc5F)nc34)c2)c1 [I-191] and Fc1ccc(F)c([C@H]2CCCN2c2ccn3ncc(-n4cc(-c5cncnc5)cn4)c3n2)c1 [I-163] cannot be ordered by IC50: < 10 nM for the first, < 10 nM for the second.

Fc1ccc(F)c([C@H]2CCCN2c2ccn3ncc(-n4cc(-c5ccccc5)cn4)c3n2)c1 [I-149] and Fc1ccc(F)c([C@H]2CCCN2c2ccn3ncc(-n4cc(-c5cccnc5)cn4)c3n2)c1 [I-159] cannot be ordered by IC50: < 10 nM for the first, < 10 nM for the second.

Fc1ccc(F)c([C@H]2CCCN2c2ccn3ncc(-n4cc(-c5ccc(F)nc5)cn4)c3n2)c1 [I-219, (R)-5-(2-(2,5-difluorophenyl)pyrrolidin-1-yl)-3-(4-(6-fluoropyridin-3-yl)-1H-pyrazol-1-yl)pyrazolo[1,5-a]pyrimidine] and Fc1ccc(F)c([C@H]2CCCN2c2ccn3ncc(-n4cc(-c5ccnnc5)cn4)c3n2)c1 [I-199] cannot be ordered by IC50: < 10 nM for the first, < 10 nM for the second.

Fc1cccnc1[C@H]1CCCN1c1ccn2ncc(-n3cc(-c4ccccc4)cn3)c2n1 [I-192] and Fc1cccnc1[C@H]1CCCN1c1ccn2ncc(-n3cc(-c4ccncc4)cn3)c2n1 [I-213] cannot be ordered by IC50: < 10 nM for the first, < 10 nM for the second.

CCP(=O)(CC)c1cnn(-c2cnn3ccc(N4CCC[C@@H]4c4cc(F)ccc4F)nc23)c1 [I-177] and CN(C)Cc1cnn(-c2cnn3ccc(N4CCC[C@@H]4c4cc(F)ccc4F)nc23)c1 [I-186, (R)-1-(1-(5-(2-(2,5-difluor®phenyl)pyrrolidin-1-yl)pyrazolo[1,5-a]pyrimidin-3-yl)-1H-pyrazol-4-yl)-N,N-dimethylmethanamine] cannot be ordered by IC50: < 10 nM for the first, < 10 nM for the second.

Fc1ccc(F)c([C@H]2CCCN2c2ccn3ncc(-n4cc(-c5ccccc5)cn4)c3n2)n1 [I-193] and Fc1ccc(F)c([C@H]2CCCN2c2ccn3ncc(-n4cc(-c5ccsc5)cn4)c3n2)c1 [I-162] cannot be ordered by IC50: < 10 nM for the first, < 10 nM for the second.

CC(=O)c1cnn(-c2cnn3ccc(N4CCC[C@@H]4c4cc(F)ccc4F)nc23)c1 [I-225, (R)-1-(1-(5-(2-(2,5-difluorophenyl)pyrrolidin-1-yl)pyrazolo[1,5-a]pyrimidin-3-yl)-1H-pyrazol-4-yl)ethanone] and NC(=O)c1cnn(-c2cnn3ccc(N4CCC[C@@H]4c4cc(F)ccc4F)nc23)c1 [I-173, (R)-1-(5-(2-(2,5-difluorophenyl)pyrrolidin-1-yl)pyrazolo[1,5-a]pyrimidin-3-yl)-1H-pyrazole-4-carboxamide] cannot be ordered by IC50: < 10 nM for the first, < 10 nM for the second.

COCc1cnn(-c2cnn3ccc(N4CCC[C@@H]4c4cc(F)ccc4F)nc23)c1 [I-226] and COCCOCc1cnn(-c2cnn3ccc(N4CCC[C@@H]4c4cc(F)ccc4F)nc23)c1 [I-180, (R)-5-(2-(2,5-difluerophenyl)pyrrolidin-1-yl)-3-(4-((2-methoxyethoxy)methyl)-1H-pyrazol-1-yl)pyrazolo[1,5-a]pyrimidine] cannot be ordered by IC50: < 10 nM for the first, < 10 nM for the second.

OC1CCN(c2cnn(-c3cnn4ccc(N5CCC[C@@H]5c5ncccc5F)nc34)c2)C1 (stereo partly shown) [I-209] and Cc1cnn(-c2cnn3ccc(N4CCC[C@@H]4c4ncccc4F)nc23)c1 [I-182, (R)-5-(2-(3-fluoropyridin-2-yl)pyrrolidin-1-yl)-3-(4-methyl-1H-pyrazol-1-yl)pyrazolo[1,5-a] pyrimidine] cannot be ordered by IC50: < 10 nM for the first, < 10 nM for the second.

Fc1ccc(F)c([C@H]2CCCN2c2ccn3ncc(-n4cc(-c5cnccn5)cn4)c3n2)c1 [I-153] and NC(=O)c1cnccc1-c1cnn(-c2cnn3ccc(N4CCC[C@@H]4c4cc(F)ccc4F)nc23)c1 [I-203] cannot be ordered by IC50: < 10 nM for the first, < 10 nM for the second.

COc1cc(C)nn1-c1cnn2ccc(N3CCC[C@@H]3c3cc(F)ccc3F)nc12 [I-166] and COc1cc(C)n(-c2cnn3ccc(N4CCC[C@@H]4c4cc(F)ccc4F)nc23)n1 [I-167] cannot be ordered by IC50: > 500 nM for the first, > 500 nM for the second.

Fc1ccc(F)c([C@H]2CCCN2c2ccn3ncc(-n4cc(-c5cncc(OC6COC6)c5)cn4)c3n2)c1 [I-214, (R)-5-(2-(2,5-difluorophenyl)pyrrolidin-1-yl)-3-(4-(5-(oxetan-3-yloxy)pyridin-3-yl)-1H-pyrazol-1-yl)pyrazolo[1,5-a]pyrimidine] and Fc1ccc(F)c([C@H]2CCCN2c2ccn3ncc(-n4cc(-c5ccc(OC6COC6)nc5)cn4)c3n2)c1 [I-223, (R)-5-(2-(2,5-difluorophenyl)pyrrolidn-1-yl)-3-(4-(6-(oxetan-3-yloxy)pyridin-3-yl)-H-pyrazol-1-yl)pyrazolo[1,5-a]pyrimidine] cannot be ordered by IC50: < 10 nM for the first, < 10 nM for the second.

CS(=O)(=O)c1cnn(-c2cnn3ccc(N4CCC[C@@H]4c4cc(F)ccc4F)nc23)c1 [I-181, (R)-5-(2-(2,5-difluorophenyl)pyrrolidin-1-yl)-3-(4-(methylsulfonyl)-1H-pyrazoI-1-yl)pyrazolo[1,5-a]pyrimidine] and Fc1ccc(F)c([C@H]2CCCN2c2ccn3ncc(-n4cc(C5CCOC5)cn4)c3n2)c1 (stereo partly shown) [I-210] cannot be ordered by IC50: < 10 nM for the first, < 10 nM for the second.

Fc1ccc(F)c([C@H]2CCCN2c2ccn3ncc(-n4cc(C5CCOCC5)cn4)c3n2)c1 [I-187, (R)-5-(2-(2,5-difluorophenyi)pyrrolidin-1-yl)-3-(4-(tetrahydro-2H-pyran-4-yl)-1H-pyrazol-1-yl)pyrazolo[1,5-a]pyrimidine] and Fc1cccnc1[C@H]1CCCN1c1ccn2ncc(-n3cc(C(F)(F)F)cn3)c2n1 [I-215] cannot be ordered by IC50: < 10 nM for the first, < 10 nM for the second.
